Source: article PMC9250534, “Synthesis and direct assay of large macrocycle diversities by combinatorial late-stage modification at picomole scale” (Nature Communications, 2022)

Target: MDM2 (Homo sapiens, UniProt Q00987)
Test: MDM2 binding screen of Libraries 3 and 4: displacement of fluorescent probe F-M8 at 750 nM macrocycle
Conditions: Panel b, Library 3: 63 scaffolds combinatorially acylated with 15 carboxylic acids at 30 picomole scale; displacement of fluorescent peptide probe; macrocycle 750 nM
Outline: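 Cyclic peptide scaffolds were acylated in DMSO with carboxylic acids (20 equiv.), HBTU and DABCO for 6 h at room temperature. Reactions were quenched overnight in 100 mM Tris-Cl pH 7.4, 0.01% Tween20. The fluorescein conjugate was also competed with nutlin-3a.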

Sequence of MDM2 (Q00987 whole entry): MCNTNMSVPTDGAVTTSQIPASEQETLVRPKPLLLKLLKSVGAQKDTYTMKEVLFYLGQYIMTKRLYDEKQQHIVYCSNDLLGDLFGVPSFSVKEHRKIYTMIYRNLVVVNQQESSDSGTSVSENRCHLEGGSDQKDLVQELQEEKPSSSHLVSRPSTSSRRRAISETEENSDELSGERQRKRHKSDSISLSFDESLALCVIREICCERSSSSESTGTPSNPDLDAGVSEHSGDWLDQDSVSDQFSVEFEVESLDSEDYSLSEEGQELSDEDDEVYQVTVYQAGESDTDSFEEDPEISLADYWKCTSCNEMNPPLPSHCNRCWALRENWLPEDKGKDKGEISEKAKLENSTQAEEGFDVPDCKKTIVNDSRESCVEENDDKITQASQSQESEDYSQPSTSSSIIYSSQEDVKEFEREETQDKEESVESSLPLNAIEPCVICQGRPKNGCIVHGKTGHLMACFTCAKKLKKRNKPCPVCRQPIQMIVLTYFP

| fraction of fluorescent probe displaced | SMILES |
| --- | --- |
| 0.015 | O=C(/C=C/c1ccc2ccccc2c1)NC[C@@H]1NC(=O)C2(CC2)CNC(=O)CCSSCCNC(=O)[C@@H](Cc2c[nH]c3ccccc23)NC1=O [X-Amcp-Dap-D-Trp + Acid 112] |
| 0.008 | Cn1cc(C[C@@H]2NC(=O)[C@H](CNC(=O)/C=C/c3ccc(Cl)cc3)NC(=O)C3(CC3)CNC(=O)CCSSCCNC2=O)c2ccccc21 [X-Amcp-Dap-Me-Trp + Acid 108] |
| 0.008 | Cn1cc(C[C@@H]2NC(=O)[C@H](CNC(=O)/C=C/c3ccc(OCc4ccccc4)cc3)NC(=O)C3(CC3)CNC(=O)CCSSCCNC2=O)c2ccccc21 [X-Amcp-Dap-Me-Trp + Acid 110] |
| 0.028 | Cn1cc(C[C@@H]2NC(=O)[C@H](CNC(=O)/C=C/c3ccc4ccccc4c3)NC(=O)C3(CC3)CNC(=O)CCSSCCNC2=O)c2ccccc21 [X-Amcp-Dap-Me-Trp + Acid 112] |
| 0.068 | O=C(/C=C/c1ccc(Cl)cc1)NC[C@@H]1NC(=O)C2(CC2)CNC(=O)CCSSCCNC(=O)[C@H](Cc2c[nH]c3ccccc23)NC1=O [X-Amcp-Dap-Trp + Acid 108] |
| 0.015 | O=C(/C=C/c1ccc(OCc2ccccc2)cc1)NC[C@@H]1NC(=O)C2(CC2)CNC(=O)CCSSCCNC(=O)[C@H](Cc2c[nH]c3ccccc23)NC1=O [X-Amcp-Dap-Trp + Acid 110] |
| -0.012 | O=C1CCSSCCNC(=O)[C@H](Cc2cccc3ccccc23)NC(=O)CN(CCNC(=O)c2ccc(Cl)cc2)C(=O)C2(CC2)CN1 [X-Amcp-N-Aeg-1-NaI + Acid 25] |
| 0.011 | O=C1CCSSCCNC(=O)[C@H](Cc2cccc3ccccc23)NC(=O)CN(CCNC(=O)c2ccc3ccccc3c2)C(=O)C2(CC2)CN1 [X-Amcp-N-Aeg-1-NaI + Acid 107] |
| 0.035 | O=C(/C=C/c1ccc(Cl)cc1)NCCN1CC(=O)N[C@@H](Cc2cccc3ccccc23)C(=O)NCCSSCCC(=O)NCC2(CC2)C1=O [X-Amcp-N-Aeg-1-NaI + Acid 108] |
| 0.008 | O=C(/C=C/c1ccc2ccccc2c1)NCCN1CC(=O)N[C@@H](Cc2cccc3ccccc23)C(=O)NCCSSCCC(=O)NCC2(CC2)C1=O [X-Amcp-N-Aeg-1-NaI + Acid 112] |
| 0.028 | CC(Oc1cccc(Cl)c1)C(=O)NCCN1CC(=O)N[C@@H](Cc2cccc3ccccc23)C(=O)NCCSSCCC(=O)NCC2(CC2)C1=O (some centres unmarked) [X-Amcp-N-Aeg-1-NaI + Acid 113] |
| 0.00133 | O=C(CCS(=O)(=O)c1ccccc1)NCCN1CC(=O)N[C@@H](Cc2cccc3ccccc23)C(=O)NCCSSCCC(=O)NCC2(CC2)C1=O [X-Amcp-N-Aeg-1-NaI + Acid 114] |
| -0.032 | O=C1CCSSCCNC(=O)[C@H](Cc2ccc3ccccc3c2)NC(=O)CN(CCNC(=O)c2ccc(Cl)s2)C(=O)C2(CC2)CN1 [X-Amcp-N-Aeg-2-Nal + Acid 14] |
| -0.041 | O=C1CCSSCCNC(=O)C(Cc2ccc3ccccc3c2)NC(=O)CN(CCNC(=O)C2CC2c2ccccc2)C(=O)C2(CC2)CN1 (centres unmarked) [X-Amcp-N-Aeg-2-Nal + Acid 105] |
| 0.018 | O=C1CCSSCCNC(=O)[C@H](Cc2ccc3ccccc3c2)NC(=O)CN(CCNC(=O)c2ccc3ccccc3c2)C(=O)C2(CC2)CN1 [X-Amcp-N-Aeg-2-Nal + Acid 107] |
| 0.041 | O=C(/C=C/c1ccc(Cl)cc1)NCCN1CC(=O)N[C@@H](Cc2ccc3ccccc3c2)C(=O)NCCSSCCC(=O)NCC2(CC2)C1=O [X-Amcp-N-Aeg-2-Nal + Acid 108] |
| 0.021 | O=C(/C=C/c1ccc(OCc2ccccc2)cc1)NCCN1CC(=O)N[C@@H](Cc2ccc3ccccc3c2)C(=O)NCCSSCCC(=O)NCC2(CC2)C1=O [X-Amcp-N-Aeg-2-Nal + Acid 110] |
| 0.008 | CC(Oc1cccc(Cl)c1)C(=O)NCCN1CC(=O)N[C@@H](Cc2ccc3ccccc3c2)C(=O)NCCSSCCC(=O)NCC2(CC2)C1=O (some centres unmarked) [X-Amcp-N-Aeg-2-Nal + Acid 113] |

Continued, molecule first:

| SMILES | fraction of fluorescent probe displaced |
| --- | --- |
| O=C1CCSSCCNC(=O)[C@H](Cc2c[nH]c3cc(Cl)ccc23)NC(=O)[C@H](CNC(=O)C2COc3ccccc3O2)NC(=O)C2(CC2)CN1 (some centres unmarked) [X-Amcp-Dap-Cl-Trp + Acid 115] | -0.012 |
| O=C1CCSSCCNC(=O)[C@@H](Cc2c[nH]c3ccccc23)NC(=O)[C@H](CNC(=O)C2CC2c2ccccc2)NC(=O)C2(CC2)CN1 (stereo partly drawn) [X-Amcp-Dap-D-Trp + Acid 105] | -0.015 |
| O=C1CCSSCCNC(=O)[C@@H](Cc2c[nH]c3ccccc23)NC(=O)[C@H](CNC(=O)c2ccc3ccccc3c2)NC(=O)C2(CC2)CN1 [X-Amcp-Dap-D-Trp + Acid 107] | 0.050 |
| O=C(/C=C/c1ccc(OCc2ccccc2)cc1)NC[C@@H]1NC(=O)C2(CC2)CNC(=O)CCSSCCNC(=O)[C@@H](Cc2c[nH]c3ccccc23)NC1=O [X-Amcp-Dap-D-Trp + Acid 110] | 0.008 |
| O=C1CCSSCCNC(=O)[C@@H](Cc2c[nH]c3ccccc23)NC(=O)[C@H](CNC(=O)c2cccc(Oc3ccccc3)c2)NC(=O)C2(CC2)CN1 [X-Amcp-Dap-D-Trp + Acid 111] | 0.00133 |
| O=C(CCS(=O)(=O)c1ccccc1)NC[C@@H]1NC(=O)C2(CC2)CNC(=O)CCSSCCNC(=O)[C@@H](Cc2c[nH]c3ccccc23)NC1=O [X-Amcp-Dap-D-Trp + Acid 114] | 0.035 |
| Cn1cc(C[C@@H]2NC(=O)[C@H](CNC(=O)c3ccc(Cl)s3)NC(=O)C3(CC3)CNC(=O)CCSSCCNC2=O)c2ccccc21 [X-Amcp-Dap-Me-Trp + Acid 14] | 0.008 |
| Cn1cc(CC2NC(=O)C(CNC(=O)C3CC3c3ccccc3)NC(=O)C3(CC3)CNC(=O)CCSSCCNC2=O)c2ccccc21 (centres unmarked) [X-Amcp-Dap-Me-Trp + Acid 105] | -0.021 |
| Cn1cc(C[C@@H]2NC(=O)[C@H](CNC(=O)CCS(=O)(=O)c3ccccc3)NC(=O)C3(CC3)CNC(=O)CCSSCCNC2=O)c2ccccc21 [X-Amcp-Dap-Me-Trp + Acid 114] | 0.041 |
| Cn1cc(C[C@@H]2NC(=O)[C@H](CNC(=O)C3COc4ccccc4O3)NC(=O)C3(CC3)CNC(=O)CCSSCCNC2=O)c2ccccc21 (some centres unmarked) [X-Amcp-Dap-Me-Trp + Acid 115] | 0.015 |
| CN1C(=O)[C@H](CNC(=O)c2ccc(Cl)s2)NC(=O)C2(CC2)CNC(=O)CCSSCCNC(=O)[C@@H]1Cc1c[nH]c2ccccc12 [X-Amcp-Dap-NMe-Trp + Acid 14] | -0.025 |
| CN1C(=O)[C@H](CNC(=O)c2ccc(Cl)cc2)NC(=O)C2(CC2)CNC(=O)CCSSCCNC(=O)[C@@H]1Cc1c[nH]c2ccccc12 [X-Amcp-Dap-NMe-Trp + Acid 25] | 0.00133 |
| CN1C(=O)[C@H](CNC(=O)/C=C/c2ccc(OCc3ccccc3)cc2)NC(=O)C2(CC2)CNC(=O)CCSSCCNC(=O)[C@@H]1Cc1c[nH]c2ccccc12 [X-Amcp-Dap-NMe-Trp + Acid 110] | 0.015 |
| CN1C(=O)[C@H](CNC(=O)c2cccc(Oc3ccccc3)c2)NC(=O)C2(CC2)CNC(=O)CCSSCCNC(=O)[C@@H]1Cc1c[nH]c2ccccc12 [X-Amcp-Dap-NMe-Trp + Acid 111] | -0.012 |
| CN1C(=O)[C@H](CNC(=O)CCS(=O)(=O)c2ccccc2)NC(=O)C2(CC2)CNC(=O)CCSSCCNC(=O)[C@@H]1Cc1c[nH]c2ccccc12 [X-Amcp-Dap-NMe-Trp + Acid 114] | 0.055 |
| O=C1CCSSCCNC(=O)[C@H](Cc2c[nH]c3ccccc23)NC(=O)[C@H](CNC(=O)c2ccc(Cl)s2)NC(=O)C2(CC2)CN1 [X-Amcp-Dap-Trp + Acid 14] | 0.008 |
| O=C1CCSSCCNC(=O)[C@H](Cc2c[nH]c3ccccc23)NC(=O)[C@H](CNC(=O)c2ccc(Cl)cc2)NC(=O)C2(CC2)CN1 [X-Amcp-Dap-Trp + Acid 25] | 0.048 |
| O=C1CCSSCCNC(=O)[C@H](Cc2c[nH]c3ccccc23)NC(=O)[C@H](CNC(=O)c2ccc3ccccc3c2)NC(=O)C2(CC2)CN1 [X-Amcp-Dap-Trp + Acid 107] | 0.063 |
| O=C(CCS(=O)(=O)c1ccccc1)NC[C@@H]1NC(=O)C2(CC2)CNC(=O)CCSSCCNC(=O)[C@H](Cc2c[nH]c3ccccc23)NC1=O [X-Amcp-Dap-Trp + Acid 114] | -0.00533 |

Same assay, conditions: Panel c, Library 4: best nine scaffolds and 15 additional carboxylic acids; displacement of fluorescent probe

| fraction of fluorescent probe displaced | SMILES |
| --- | --- |
| 0.077 | O=C(/C=C/c1ccc(F)cc1)NC[C@@H]1NC(=O)C2(CC2)CNC(=O)CCSSCCNC(=O)[C@H](Cc2c[nH]c3ccccc23)NC1=O [X-Amcp-Dap-Trp + Acid 116] |
| 0.028 | CC(C)c1ccc(/C=C/C(=O)NC[C@@H]2NC(=O)C3(CC3)CNC(=O)CCSSCCNC(=O)[C@H](Cc3c[nH]c4ccccc34)NC2=O)cc1 [X-Amcp-Dap-Trp + Acid 127] |

Continued, molecule first:

| SMILES | fraction of fluorescent probe displaced |
| --- | --- |
| CCCOc1ccc(/C=C/C(=O)NC[C@@H]2NC(=O)C3(CC3)CNC(=O)CCSSCCNC(=O)[C@H](Cc3c[nH]c4ccccc34)NC2=O)cc1 [X-Amcp-Dap-Trp + Acid 118] | 0.069 |
| O=C(/C=C/c1ccc(Cl)c(Cl)c1)NC[C@@H]1NC(=O)C2(CC2)CNC(=O)CCSSCCNC(=O)[C@H](Cc2c[nH]c3ccccc23)NC1=O [X-Amcp-Dap-Trp + Acid 119] | 0.069 |
| O=C(/C=C/c1cccc(Cl)c1)NC[C@@H]1NC(=O)C2(CC2)CNC(=O)CCSSCCNC(=O)[C@H](Cc2c[nH]c3ccccc23)NC1=O [X-Amcp-Dap-Trp + Acid 121] | 0.052 |
| O=C(/C=C/c1cccc(C(F)(F)F)c1)NC[C@@H]1NC(=O)C2(CC2)CNC(=O)CCSSCCNC(=O)[C@H](Cc2c[nH]c3ccccc23)NC1=O [X-Amcp-Dap-Trp + Acid 122] | 0.052 |
| O=C1CCSSCCNC(=O)[C@H](Cc2c[nH]c3ccccc23)NC(=O)[C@H](CNC(=O)c2cnc3ccccc3n2)NC(=O)C2(CC2)CN1 [X-Amcp-Dap-Trp + Acid 130] | 0.0035 |
